The values that follow come from publication PMC11447812, “How ATP and dATP Act as Molecular Switches to Regulate Enzymatic Activity in the Prototypical Bacterial Class Ia Ribonucleotide Reductase” (Biochemistry, 2024).

Assay [1] has as its target T1, E. coli class Ia RNR α subunit (W28A-α2) (Escherichia coli, UniProt P00452, W28A).
T1 construct: gene nrdA; His6-W28A-α2
T1 sequence (P00452 1-761 W28A): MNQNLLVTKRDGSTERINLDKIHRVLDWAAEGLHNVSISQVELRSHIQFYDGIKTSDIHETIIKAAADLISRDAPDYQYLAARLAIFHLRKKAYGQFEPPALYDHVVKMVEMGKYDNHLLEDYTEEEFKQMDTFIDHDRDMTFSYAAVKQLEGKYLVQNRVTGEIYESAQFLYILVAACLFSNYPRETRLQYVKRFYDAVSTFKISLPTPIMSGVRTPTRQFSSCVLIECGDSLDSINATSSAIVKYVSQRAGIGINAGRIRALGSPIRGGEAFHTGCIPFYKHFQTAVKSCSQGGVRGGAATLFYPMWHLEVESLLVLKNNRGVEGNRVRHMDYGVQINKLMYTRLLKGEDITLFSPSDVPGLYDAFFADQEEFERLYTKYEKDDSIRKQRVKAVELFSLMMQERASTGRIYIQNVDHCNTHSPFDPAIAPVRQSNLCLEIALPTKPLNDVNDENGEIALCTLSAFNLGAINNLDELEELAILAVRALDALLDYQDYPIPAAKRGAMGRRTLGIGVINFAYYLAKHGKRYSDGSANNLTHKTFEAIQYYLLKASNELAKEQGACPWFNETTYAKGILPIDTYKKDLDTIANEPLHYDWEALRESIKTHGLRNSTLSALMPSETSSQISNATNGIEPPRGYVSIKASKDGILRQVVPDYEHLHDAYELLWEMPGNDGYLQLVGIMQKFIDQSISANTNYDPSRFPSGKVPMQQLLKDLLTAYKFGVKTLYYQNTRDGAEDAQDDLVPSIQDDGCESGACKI
T1 sequence (P69924 2-376 partner): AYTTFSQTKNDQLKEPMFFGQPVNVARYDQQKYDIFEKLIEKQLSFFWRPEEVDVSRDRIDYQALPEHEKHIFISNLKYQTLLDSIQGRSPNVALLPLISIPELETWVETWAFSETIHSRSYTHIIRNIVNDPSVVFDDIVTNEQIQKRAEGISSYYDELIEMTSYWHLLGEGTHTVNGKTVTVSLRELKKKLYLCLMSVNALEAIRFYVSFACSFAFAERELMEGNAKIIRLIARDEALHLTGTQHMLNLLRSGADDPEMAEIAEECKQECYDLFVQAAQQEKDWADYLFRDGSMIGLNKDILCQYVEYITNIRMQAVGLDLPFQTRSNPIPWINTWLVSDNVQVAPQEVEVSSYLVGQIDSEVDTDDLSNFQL
In words: […] Å crystal structure with ATP. It counts as binding.

Assay [2] has as its target T1, E. coli class Ia RNR α subunit (W28A-α2). In words: […] Å crystal structure W28A-α2-dATP/GTP; inhibition in activity assay. It counts as binding.

Take `Nc1ccn([C@@H]2O[C@H](COP(=O)(O)OP(=O)(O)O)[C@@H](O)[C@H]2O)c(=O)n1` [CDP]: the “2.6 Å crystal structure with ATP” value in assay [1] is reported as “provides a higher-resolution picture of the active site bound to the CDP/ATP substrate/effector pair”.

Consider `Nc1ncnc2c1ncn2[C@H]1C[C@H](O)[C@@H](COP(=O)(O)OP(=O)(O)OP(=O)(O)O)O1` [dATP], for which the “3.55 Å crystal structure W28A-α2-dATP/GTP; inhibition in activity assay” value in assay [2] is “dATP was placed in the specificity site based on omit maps”.
